Results published in ChEMBL document CHEMBL1201862, “PubChem BioAssay data set” (2004).
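Protocol summary: plate cells (96-well), add compound at 5 concentrations, incubate 48 h, interpolate endpoints linearly. GI50 is the concentration that inhibits growth by half.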 Active and inactive are the calls of the source. Cut-off read from the data, not from the text of the source: active = GI50 up to about 1.1 µM and inactive = higher.

Key:
Assay in all cases: NCI-60 cell line screen, 48 h
MDA-MB-231 = test system: MDA-MB-231
MOLT-4 = test system: MOLT-4
HCT-116 = test system: HCT-116
NCI/ADR-RES = test system: NCI/ADR-RES
SK-OV-3 = test system: SK-OV-3
SF-539 = test system: SF-539
NCI-H226 = test system: NCI-H226
U-251 = test system: U-251
KM12 = test system: KM12
NCI-H522 = test system: NCI-H522
T47D = test system: T47D
CAKI-1 = test system: CAKI-1
Hs-578T = test system: Hs-578T
MDA-MB-435 = test system: MDA-MB-435
SF-268 = test system: SF-268
OVCAR-5 = test system: OVCAR-5
HT-29 = test system: HT-29
HCC 2998 = test system: HCC 2998
COLO 205 = test system: COLO 205
IGROV-1 = test system: IGROV-1

Row | Compound | GI50 (MDA-MB-231) | GI50 (MOLT-4) | GI50 (HCT-116) | GI50 (NCI/ADR-RES) | GI50 (SK-OV-3) | GI50 (SF-539) | GI50 (NCI-H226) | GI50 (U-251) | GI50 (KM12) | GI50 (NCI-H522) | GI50 (T47D) | GI50 (CAKI-1) | GI50 (Hs-578T) | GI50 (MDA-MB-435) | GI50 (SF-268) | GI50 (OVCAR-5) | GI50 (HT-29) | GI50 (HCC 2998) | GI50 (COLO 205) | GI50 (IGROV-1)
1 | COc1ccc(-c2oc3cc(O)c(OC)c(O)c3c(=O)c2O)cc1 [BETULETOL] | 12.9 µM (inactive) | 1.85 µM (inactive) | 8.75 µM (inactive) | 6.73 µM (inactive) | 6.22 µM (inactive) | 8.32 µM (inactive) | 5.19 µM (inactive) | 4.47 µM (inactive) | 12 µM (inactive) | 10.2 µM (inactive) | 9.75 µM (inactive) | 6.03 µM (inactive) | 15.2 µM (inactive) | 17.9 µM (inactive) | 8.61 µM (inactive) | 26.9 µM (inactive) | 17.1 µM (inactive) | 19.3 µM (inactive) | 23.7 µM (inactive) | 15.1 µM (inactive)
2 | COc1cc(/C=N/c2ccccn2)cc(OC)c1OC | > 100 µM (inactive) | > 100 µM (inactive) | > 100 µM (inactive) | > 100 µM (inactive) | > 63.8 µM (inactive) | > 100 µM (inactive) | > 100 µM (inactive) | > 100 µM (inactive) | > 100 µM (inactive) | > 100 µM (inactive) | > 100 µM (inactive) | > 100 µM (inactive) | > 100 µM (inactive) | 24.5 µM (inactive) | > 100 µM (inactive) | > 100 µM (inactive) | > 100 µM (inactive) | > 100 µM (inactive) | > 100 µM (inactive) | > 100 µM (inactive)
3 | OC1CC2CCC(C1)N2CCCN1c2ccccc2Sc2ccc(Cl)cc21 (stereo not given) | 1.84 µM (inactive) | 2.29 µM (inactive) | 1.83 µM (inactive) | 2.36 µM (inactive) | 3.37 µM (inactive) | 1.84 µM (inactive) | 5.94 µM (inactive) | 1.87 µM (inactive) | 1.95 µM (inactive) | 1.99 µM (inactive) | 2.23 µM (inactive) | 3.01 µM (inactive) | 2.22 µM (inactive) | 1.73 µM (inactive) | 2.37 µM (inactive) | 2.82 µM (inactive) | 1.67 µM (inactive) | 0.338 µM (active) | 1.77 µM (inactive) | 1.98 µM (inactive)
4 | CC(C)NC(=O)OCc1c(COC(=O)NC(C)C)c(-c2ccc[n+](COC(=O)C3CC3)c2)n2c1CCC2 | > 100 µM (inactive) | 14.9 µM (inactive) | 60.5 µM (inactive) | 47.1 µM (inactive) | 49.5 µM (inactive) | 44.7 µM (inactive) | > 100 µM (inactive) | 56 µM (inactive) | > 100 µM (inactive) | 27.1 µM (inactive) | 86.7 µM (inactive) | 20.1 µM (inactive) | 79.3 µM (inactive) | > 100 µM (inactive) | 28.4 µM (inactive) | > 100 µM (inactive) | 79.4 µM (inactive) | > 100 µM (inactive) | 70.5 µM (inactive) | > 100 µM (inactive)
5 | Cc1ccc(NCCN(C)C)c2c(=O)c3cc(O)ccc3oc12 | 9.04 µM (inactive) | 1.11 µM (active) | 4.86 µM (inactive) | 10.6 µM (inactive) | 13.4 µM (inactive) | 8.28 µM (inactive) | 15.8 µM (inactive) | 8.2 µM (inactive) | 11.2 µM (inactive) | 8.15 µM (inactive) | 16.5 µM (inactive) | 10.6 µM (inactive) | 6.41 µM (inactive) | 12 µM (inactive) | 5.35 µM (inactive) | 15.5 µM (inactive) | 11.2 µM (inactive) | 11.9 µM (inactive) | 10.8 µM (inactive) | 12.3 µM (inactive)
6 | CC1C/C(=C\c2ccc(OC(=O)C(C)(C)C)cc2)C(=O)/C(=C/c2ccc(OC(=O)C(C)(C)C)cc2)C1 (stereo not given) | 59.3 µM (inactive) | 7.66 µM (inactive) | 61.2 µM (inactive) | > 100 µM (inactive) | > 100 µM (inactive) | 39.5 µM (inactive) | 22.2 µM (inactive) | 31 µM (inactive) | 26.2 µM (inactive) | 4.29 µM (inactive) | 59.3 µM (inactive) | > 100 µM (inactive) | 49.3 µM (inactive) | 46.5 µM (inactive) | 87.7 µM (inactive) | > 100 µM (inactive) | > 100 µM (inactive) | > 100 µM (inactive) | > 100 µM (inactive) | 7.64 µM (inactive)
7 | O=C1CS/C(=N/N=C/c2cn(Cc3ccc(Cl)cc3Cl)c3ccccc23)N1 | 17 µM (inactive) | 38.2 µM (inactive) | 44.6 µM (inactive) | 24.5 µM (inactive) | > 100 µM (inactive) | 18.2 µM (inactive) | > 100 µM (inactive) | 17.3 µM (inactive) | 54.3 µM (inactive) | 44.9 µM (inactive) | 23.1 µM (inactive) | 39.1 µM (inactive) | 25.8 µM (inactive) | 25 µM (inactive) | 30.8 µM (inactive) | > 100 µM (inactive) | 50.1 µM (inactive) | 32.2 µM (inactive) | > 100 µM (inactive) | 73.3 µM (inactive)
8 | Cc1ccc(S(=O)(=O)NC(=O)Nc2nc[nH]n2)cc1 | > 100 µM (inactive) | > 100 µM (inactive) | > 100 µM (inactive) | > 100 µM (inactive) | > 100 µM (inactive) | > 100 µM (inactive) | > 100 µM (inactive) | > 100 µM (inactive) | > 100 µM (inactive) | > 100 µM (inactive) | > 100 µM (inactive) | > 100 µM (inactive) | > 100 µM (inactive) | > 100 µM (inactive) | > 100 µM (inactive) | > 100 µM (inactive) | > 100 µM (inactive) | > 100 µM (inactive) | > 100 µM (inactive) | > 100 µM (inactive)
9 | O=C(N(O)c1ccccc1Cl)C(O)(c1ccccc1)c1ccccc1 | > 100 µM (inactive) | 30.8 µM (inactive) | > 100 µM (inactive) | 63.8 µM (inactive) | > 100 µM (inactive) | > 100 µM (inactive) | > 100 µM (inactive) | 40.6 µM (inactive) | 36.1 µM (inactive) | 33 µM (inactive) | 47 µM (inactive) | 30.2 µM (inactive) | 42.5 µM (inactive) | 65.2 µM (inactive) | > 100 µM (inactive) | 82 µM (inactive) | 85.7 µM (inactive) | 35.4 µM (inactive) | > 100 µM (inactive) | 78.9 µM (inactive)
10 | CN(C)c1ccc(/C=C(\NC(=O)c2ccccc2)C(=O)NCC(=O)O)cc1 | > 100 µM (inactive) | > 100 µM (inactive) | > 100 µM (inactive) | > 100 µM (inactive) | > 100 µM (inactive) | > 100 µM (inactive) | > 100 µM (inactive) | > 100 µM (inactive) | > 100 µM (inactive) | > 100 µM (inactive) | > 100 µM (inactive) | > 100 µM (inactive) | > 100 µM (inactive) | > 100 µM (inactive) | > 100 µM (inactive) | > 100 µM (inactive) | > 100 µM (inactive) | > 100 µM (inactive) | > 100 µM (inactive) | > 100 µM (inactive)
11 | Cc1ccc2cccc(-c3cccc4ccccc34)c2n1 | 22.9 µM (inactive) | 13.2 µM (inactive) | 17.8 µM (inactive) | 26.1 µM (inactive) | 23.7 µM (inactive) | 24 µM (inactive) | 20.5 µM (inactive) | 12.7 µM (inactive) | 15 µM (inactive) | 23.7 µM (inactive) | 15.8 µM (inactive) | 26.6 µM (inactive) | 23.5 µM (inactive) | 2.69 µM (inactive) | 25.5 µM (inactive) | 18.3 µM (inactive) | 20.7 µM (inactive) | 12.1 µM (inactive) | 23.7 µM (inactive) | 26.5 µM (inactive)
12 | Nc1ccn([C@@H]2C=C(CO)[C@@H](O)[C@H]2O)c(=O)n1 | 0.467 µM (active) | 0.0501 µM (active) | 0.05 µM (active) | 0.092 µM (active) | 0.248 µM (active) | 0.254 µM (active) | 5.53 µM (inactive) | 0.321 µM (active) | 0.143 µM (active) | 0.6 µM (active) | 0.483 µM (active) | 0.101 µM (active) | 2.24 µM (inactive) | 0.05 µM (active) | 0.269 µM (active) | 1.48 µM (inactive) | 0.11 µM (active) | 1.29 µM (inactive) | 0.198 µM (active) | 0.108 µM (active)
13 | [N-]=[N+]=NC1C(O)C(CO)OC1n1cnc2c(N)ncnc21 (stereo not given) | > 100 µM (inactive) | 9.51 µM (inactive) | 42.3 µM (inactive) | 27.1 µM (inactive) | 87.5 µM (inactive) | 27.9 µM (inactive) | 51.6 µM (inactive) | > 100 µM (inactive) | 74.3 µM (inactive) | 65.8 µM (inactive) | 8.83 µM (inactive) | 40.9 µM (inactive) | > 100 µM (inactive) | 82.6 µM (inactive) | 51.1 µM (inactive) | > 100 µM (inactive) | 31 µM (inactive) | 29.7 µM (inactive) | > 100 µM (inactive) | 92.7 µM (inactive)
14 | C[C@@H]1[C@H](C)N1CC(O)Cn1ccnc1[N+](=O)[O-] (stereo not given in full) | > 100 µM (inactive) | > 100 µM (inactive) | > 100 µM (inactive) | > 100 µM (inactive) | > 100 µM (inactive) | > 100 µM (inactive) | > 100 µM (inactive) | > 100 µM (inactive) | > 100 µM (inactive) | > 100 µM (inactive) | > 100 µM (inactive) | > 100 µM (inactive) | > 100 µM (inactive) | > 100 µM (inactive) | > 100 µM (inactive) | > 100 µM (inactive) | > 100 µM (inactive) | > 100 µM (inactive) | > 100 µM (inactive) | > 100 µM (inactive)
